Experimental data from patent publication US20240099214A1, “PLANT DEFENCE GENE EXPRESSION” (UPL Corporation Limited, priority 2021, published 2024).
Entries after “also recorded” stand apart in the source; their conditions may differ.

Key:
Type in all cases: in vivo, Tomato ecotype corbarino
[1] = system: Regulator of gene silencing (gene 14, AY642285.1); assay: qRT-PCR expression of gene 14 in tomato leaves; design: key to RQ1 / RQ2 / RQ3 / RQ mean: relative expression normalized to a-tubulin housekeeping gene; conditions: for gene 14 expression compared to TSWV treatment: 48 hr; for gene 14 expression: 72 hr
Experimental: (§1) Tomato ecotype “corbarino” reported to be susceptible to TSWV infection was used in the experiment. Plants were grown in pots in a climatic chamber with a photoperiod of 16/8 hour at 25° C.
(§2) The viral strain (TSWV PV PV-0393) was utilized in the experiment. The virus was mechanically inoculated and propagated on tomato “corbarino”. The inoculum was prepared in an ice-cooled mortar grounding 1 gr of infected tomato tissue in 10 ml of Na-phosphate buffer 0.01M. The fresh prepared inoculum was stored in ice before use. Tomato plants at BBCH16 were dusted with Carborundum 600 mesh and selected leaves were rubbed with some droplets of inoculum. After 5 min. plants were sprayed with sterile water to remove the excess of inoculum and preserve the cell turgor.
(§3) Four treatments were compared: i) Mock inoculated; ii) TSWV; iii) 0.25% Laminarin; iv) 0.25% Laminarin+TSWV. In the last treatment the virus was inoculated 24 hrs after the laminarin application.
(§4) Total RNA was extracted from systemic infected tomato leaves by using the Quick-RNA Plant Kit (Zymo Research) following the manufacturer instructions. The extractions were carried out using three plants after 12 h, 24 h, 48 h, 72 h, 7 days after inoculation. Leaves were instantly frozen in liquid nitrogen after cutting to avoid any deterioration of the sample as well as any defense reaction. The RNA concentration was quantified by measuring the absorbance at 260 nm using a Nanodrop 2000 (Thermofisher). The purity of all of the RNA samples was assessed at an absorbance ratio of OD260/280 and OD260/230, while its structural integrity was checked by agarose gel electrophoresis. Only high-quality RNA with OD 260/280 and OD 260/230>2 was used for subsequent steps. Single-stranded cDNA was synthesized from 1 μg of total RNA using an iScript™ Select cDNA Synthesis Kit and random hexamers as primers (Bio-Rad, Milan, Italy), according to the manufacturer's instructions. Three biological replicates were created from the 3 leaves collected to test 15 genes. Alpha tubulin was used as reference gene.
(§5) qPCR reactions were performed with BioRad (Applied Biosystems, Foster City, CA, USA) using SYBR R Green. Each reaction was performed in 20 μl containing 10 μl of 2× Power SYBR Green PCR Master Mix (Life Technologies), 0.2-0.3 μM primers and cDNA samples diluted 1:20. Each qPCR reaction was performed in triplicate. Reactions were run using the cycling parameter described previously (Reid et al., 2006) and the qPCR data were analyzed by the Ct method (Pfaffl, 2001). In order to analyze the qPCR data, a-tubulin gene was used as housekeeping to determine the relative expression level of the other genes analyzed in this work. For the determination of qPCR efficiency of each primer pairs, a standard curve was performed using the following cDNA dilutions: 1:4, 1:16, 1:64; 1:256 and 1:1024. Every measurement was made in triplicate. The corresponding qPCR efficiencies (E) were calculated for every primer pair with the software 7300 System SDS software (Applied Biosystems, Foster City, CA, USA) according to the equation E=(10−1/slope−1)×100 (Rutledge and Stewart, 2008).
(§6) The significance of the differences between the gene expressions levels were compared by one-way ANOVA (p=0.01) and the means were separated by Tukey post-hoc test using SPSS ver.26 ([…]).

set of defense genes = assay: qRT-PCR gene expression of the set of tested defence genes in tomato leaves (relative to a-tubulin, compared to water treatment); conditions: for gene expression of the set of defense genes compared to TSWV treatment: 48 hours from the treatment, tomato leaves
Experimental: as §1, §2, §3
Total RNA was extracted from systemic infected tomato leaves by using the Quick-RNA Plant Kit (Zymo Research) following the manufacturer instructions. […] The RNA concentration was quantified by measuring the absorbance at 260 nm using a Nanodrop 2000 (Thermofisher). The purity of all of the RNA samples was assessed at an absorbance ratio of OD260/280 and OD260/230, while its structural integrity was checked by agarose gel electrophoresis. […]
qPCR reactions were performed with BioRad (Applied Biosystems, Foster City, CA, USA) using SYBR R Green. […] Reactions were run using the cycling parameter described previously (Reid et al., 2006) and the qPCR data were analyzed by the Ct method (Pfaffl, 2001). In order to analyze the qPCR data, a-tubulin gene was used as housekeeping to determine the relative expression level of the other genes analyzed in this work. […] The corresponding qPCR efficiencies (E) were calculated for every primer pair with the software 7300 System SDS software (Applied Biosystems, Foster City, CA, USA) according to the equation E=(10−1/slope−1)×100 (Rutledge and Stewart, 2008). […]

[2] = system: Avr/Cf9 rapidly elicited protein 75 (gene 5, Solyc11g010250.1); assay: qRT-PCR expression of gene 5 in tomato leaves; design: key: relative expression normalized to a-tubulin housekeeping gene
Experimental: as §1, §2, §3, §4, §5, §6

[3] = Gene_14, 12 hr, treatment Laminarin
[4] = Gene_14, 12 hr, treatment Laminarin + virus
[5] = Gene_14, 24 hr, treatment Laminarin
[6] = Gene_14, 24 hr, treatment Laminarin + virus
[7] = Gene_14, 48 hr, treatment Laminarin
[8] = Gene_14, 48 hr, treatment Laminarin + virus
[9] = Gene_14, 72 hr, treatment Laminarin
[10] = Gene_14, 72 hr, treatment Laminarin + virus

Substance: laminarin
- gene 14 expression compared to TSWV treatment ([1]; 0.25% laminarin + TSWV inoculated 24 hrs later): inverted
- gene 14 expression compared to TSWV treatment ([1]; 0.25% laminarin alone): inverted
- gene 14 expression ([1]; Laminarin alone): no clear overexpression; also recorded: down regulation
- gene 14 expression ([1]; laminarin with TSWV): down regulation
- RQ1 [1, 3]: 12.337
- RQ2 [1, 3]: 10.845
- RQ3 [1, 3]: 11.390
- RQ mean [1, 3]: 11.524
- RQ1 [1, 4]: 14.800
- RQ2 [1, 4]: 14.769
- RQ3 [1, 4]: 10.304
- RQ mean [1, 4]: 13.291
- RQ1 [1, 5]: 15.741
- RQ2 [1, 5]: 11.640
- RQ3 [1, 5]: 12.032
- RQ mean [1, 5]: 13.138
- RQ1 [1, 6]: 10.995
- RQ2 [1, 6]: 12.080
- RQ3 [1, 6]: 12.197
- RQ mean [1, 6]: 11.758
- RQ1 [1, 7]: 0.3028
- RQ2 [1, 7]: 0.7177
- RQ3 [1, 7]: 0.5353
- RQ mean [1, 7]: 0.5186
- RQ1 [1, 8]: 0.5979
- RQ2 [1, 8]: 0.3384
- RQ3 [1, 8]: 0.4902
- RQ mean [1, 8]: 0.4755
- RQ1 [1, 9]: 0.2805
- RQ2 [1, 9]: 0.3706
- RQ3 [1, 9]: 0.3064
- RQ mean [1, 9]: 0.3192
- RQ1 [1, 10]: 0.5857
- RQ2 [1, 10]: 0.5072
- RQ3 [1, 10]: 0.2692
- RQ mean [1, 10]: 0.4540
- gene expression of the set of defense genes compared to TSWV treatment (set of defense genes; 0.25% laminarin + TSWV inoculated 24 hrs after laminarin application): activates the set of defense genes at higher level compared to TSWV
- gene expression of the set of defense genes compared to TSWV treatment (set of defense genes; 0.25% laminarin alone): activates the set of defense genes at higher level compared to TSWV
- gene expression of the tested genes, overall (set of defense genes; 72 hr): clear evidence of the laminarin effects
- RQ1 ([2]; 12 hr, Laminarin + virus): 0.8046
- RQ2 ([2]; 12 hr, Laminarin + virus): 10.612
- RQ3 ([2]; 12 hr, Laminarin + virus): 11.537
- RQ mean ([2]; 12 hr, Laminarin + virus): 10.065
- RQ1 ([2]; 12 hr, Laminarin alone): 0.7901
- RQ2 ([2]; 12 hr, Laminarin alone): 11.285
- RQ3 ([2]; 12 hr, Laminarin alone): 0.9408
- RQ mean ([2]; 12 hr, Laminarin alone): 0.9531
- RQ1 ([2]; 24 hr, Laminarin + virus): 10.601
- RQ2 ([2]; 24 hr, Laminarin + virus): 12.023
- RQ3 ([2]; 24 hr, Laminarin + virus): 0.9700
- RQ mean ([2]; 24 hr, Laminarin + virus): 10.775
- RQ1 ([2]; 24 hr, Laminarin alone): 11.135
- RQ2 ([2]; 24 hr, Laminarin alone): 12.189
- RQ3 ([2]; 24 hr, Laminarin alone): 0.9994
- RQ mean ([2]; 24 hr, Laminarin alone): 11.106
- RQ1 ([2]; 48 hr, Laminarin + virus): 0.8610
- RQ2 ([2]; 48 hr, Laminarin + virus): 13.586
- RQ3 ([2]; 48 hr, Laminarin + virus): 10.405
- RQ mean ([2]; 48 hr, Laminarin + virus): 10.867
- RQ1 ([2]; 48 hr, Laminarin alone): 0.9204
- RQ2 ([2]; 48 hr, Laminarin alone): 12.321
- RQ3 ([2]; 48 hr, Laminarin alone): 10.531
- RQ mean ([2]; 48 hr, Laminarin alone): 10.685
- RQ1 ([2]; 72 hr, Laminarin + virus): 17.401
- RQ2 ([2]; 72 hr, Laminarin + virus): 30.624
- RQ3 ([2]; 72 hr, Laminarin + virus): 25.095
- RQ mean ([2]; 72 hr, Laminarin + virus): 24.373
- RQ1 ([2]; 72 hr, Laminarin alone): 22.196
- RQ2 ([2]; 72 hr, Laminarin alone): 23.867
- RQ3 ([2]; 72 hr, Laminarin alone): 23.473
- RQ mean ([2]; 72 hr, Laminarin alone): 23.179
